Reference: paper PMC8176454, “Synthesis and Assessment of Novel Probes for Imaging Tau Pathology in Transgenic Mouse and Rat Models” (ACS Chemical Neuroscience, 2021)
Values belong to the compound of their own block, whether it stands above or below them.

Assays:
[1] = target: tau fibrils; parameters: method as in PMID 28087578; details: read-out: Kd, previously reported value; cited from earlier work
[2] = target: T1, 3R tau151-391 aggregates in cortical sections from SHR24 rats (Homo sapiens, UniProt P10636); test: Binding to SHR24 transgenic rat brain sections; details: 50 μM, colocalization with AT8
T1 construct: tissue AXON Neuroscience; host or cells: brain (cortex) sections of SHR24 transgenic rats
T1 sequence (P10636 151-360 isoform P10636-5): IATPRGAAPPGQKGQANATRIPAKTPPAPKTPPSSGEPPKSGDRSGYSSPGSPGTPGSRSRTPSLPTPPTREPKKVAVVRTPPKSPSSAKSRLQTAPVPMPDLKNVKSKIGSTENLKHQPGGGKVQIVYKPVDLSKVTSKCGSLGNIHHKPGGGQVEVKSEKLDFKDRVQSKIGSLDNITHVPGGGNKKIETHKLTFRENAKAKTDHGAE
From the text: (§1) Since future PET studies for development of these compounds would require kinetic modeling for their assessment in vivo, we tested their performance in tau transgenic rats. Rat brains and blood volumes are about 6- and 10-fold larger, respectively, than those of mice and thus enable higher resolution imaging and ample volume for repeated blood sampling. We used two transgenic rat lines expressing human-truncated tau comprising the proline-rich region and either three microtubule binding domains (3R tau151-391, SH24)[28] or four microtubule binding domains (4R tau151-391, SHR72).[29] […] However, compared to the SHR24 rat brain sections, there were less inclusions detected, which seems to indicate the compounds have preferential binding toward the three repeat forms of tau in these rat models.
(§2) Fresh frozen rat brain coronal sections (10 μm) were stored on slides at −80 °C until use. Sections were fixed in ice cold acetone for 10 min and air-dried and then rehydrated twice for 5 min with buffer (10 mM PBS with 0.1% Triton X-100) before application of 5% bovine serum albumin for 1 h and two more 5 min buffer washes. Primary monoclonal antibody AT8 (Thermo MN1020, 1:1000) was added overnight at 4 °C, followed by 1 h incubation with a mixture of secondary AlexaFluor555 goat anti-mouse antibody (1:1000) and 50 μM PBB3 or LM229 in 50:50 ethanol/buffer. Following two 5 min washes in buffer, the slides were air-dried and cover-slipped using Fluorsave before analysis. The green autofluorescence of PBB3 and LM229 was visualized using a 488 nm filter and fluorescence of AT8 using a 568 nm filter on a Leica DM6000 microscope.

[3] = system: 3R tau151-391 aggregates in cortical sections from SHR24 rats; test: Binding to SHR24 transgenic rat brain sections; details: SHR24 (3R) vs SHR72 (4R) brain tissue
From the text: as §1, §2

[4] = system: tau aggregates in DRG neurons from P301S tau mice; test: Fluorescence binding to cultured DRG neurons from P301S tau transgenic mice; assay type: cell-based, mouse; details: IC50 could not be derived because of low affinity
Protocol: P301S tau mice with aggregated tau in the brain also express aggregated tau in DRG neurons.[24]−[26] […] To estimate the apparent affinity of LM229 to tau aggregates directly in living neurons, we imaged live neurons after 20 min incubation with various concentrations of LM229 (Figure 4A). […] LM229 binding was specific to neurons with aggregated tau, as detected with the AT100 antibody[18],[22],[23],[26] (Figure 4D). […] Although PBB3 also bound to DRG neurons with tau aggregates at 30–100 μM, it was not possible to derive an IC50 value because of its low affinity in this assay (Supporting Information, Figure S2). […] The shift from nanomolar to micromolar affinity between binding to heparin tau fibrils and tau aggregates in P301S tau neurons may reflect the different environment and assay conditions or the different conformations that tau aggregates assume in neurons compared to heparin–tau complexes.[27]
Neurons were prepared from phenotypic end stage 5–7 month old P301S tau mice and cultured as described previously.[24] For live staining, neurons cultured for 2 days were washed in PBS and incubated with various concentrations of LM229 for 20 min at room temperature. After three washes in PBS, neurons were imaged on a Leica DMI 4000B microscope using a DFC3000 G camera and application suite 4.0.0.11706. The dead cell stain Propidium iodide (1 μg/mL) was added to ensure that only live cells were imaged. Phase contrast images were taken to show viable neurons. For fixed cell staining, neurons were fixed for 20 min at room temperature in 4% paraformaldehyde, washed in PBS, and permeabilized in PBS containing 0.3% Triton X-100. LM299 was added as described for live cells, and cells were probed with AT100 (1:1000, MN1060) followed by anti-mouse AlexaFluor568 secondary antibody. Cultures were co-stained with the nuclear dye DAPI (blue) to reveal total cells. […]
(§3) Binding to cultured neurons from P301S tau transgenic mice
(§4) DRG were incubated with the indicated concentrations of LM229 or PBB3 for 20 minutes at room temperature, washed 3 times in PBS, and imaged on a Leica DMI 4000B microscope using a Leica DFC3000 G camera and the Leica application suite 4.0.0.11706. Fluorescence intensity was measured in 10-16 neurons each from 3 independent cultures using Image J (imagej.nih.gov/ij/). Results shown are mean ± SD. Non linear least squares curve fitting was applied using http://faculty.gvsu.edu/carlsont/232lab/nonlin2.html. No Km value was […]
Figure S2: Binding of LM229 and PBB3 to DRG neurons with tau aggregates […]
(1 picture or pasted object on this page, not shown here)

[5] = target: T2, 4R tau151-391 aggregates in brainstem sections from SHR72 rats (Homo sapiens, UniProt P10636); test: Binding to SHR72 transgenic rat brain sections; details: 50 μM, colocalization with AT8
T2 construct: tissue AXON Neuroscience; host or cells: brain (brainstem) sections of SHR72 transgenic rats
T2 sequence (P10636 468-708): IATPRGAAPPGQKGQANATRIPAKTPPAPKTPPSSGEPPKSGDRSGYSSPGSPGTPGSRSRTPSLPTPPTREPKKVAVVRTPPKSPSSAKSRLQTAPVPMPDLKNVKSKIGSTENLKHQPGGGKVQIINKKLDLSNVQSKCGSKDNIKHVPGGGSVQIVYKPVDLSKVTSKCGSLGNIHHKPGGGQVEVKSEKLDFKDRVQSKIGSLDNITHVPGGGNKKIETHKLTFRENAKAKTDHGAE
From the text: as §1
Fresh frozen rat brain coronal sections (10 μm) were stored on slides at −80 °C until use. Sections were fixed in ice cold acetone for 10 min and air-dried and then rehydrated twice for 5 min with buffer (10 mM PBS with 0.1% Triton X-100) before application of 5% bovine serum albumin for 1 h and two more 5 min buffer washes. […] The green autofluorescence of PBB3 and LM229 was visualized using a 488 nm filter and fluorescence of AT8 using a 568 nm filter on a Leica DM6000 microscope.

[6] = target: T3, heparin-induced synthetic recombinant tau fibrils (tau-441 human) (Homo sapiens, UniProt P10636); test: Fluorescence quenching assay of compound binding to heparin-induced synthetic recombinant tau fibrils; details: read-out: Kd of compound binding to heparin-induced synthetic tau fibrils determined by fluorimetry
T3 construct: purchased Eurogentec
T3 sequence (P10636 1-441 isoform P10636-8): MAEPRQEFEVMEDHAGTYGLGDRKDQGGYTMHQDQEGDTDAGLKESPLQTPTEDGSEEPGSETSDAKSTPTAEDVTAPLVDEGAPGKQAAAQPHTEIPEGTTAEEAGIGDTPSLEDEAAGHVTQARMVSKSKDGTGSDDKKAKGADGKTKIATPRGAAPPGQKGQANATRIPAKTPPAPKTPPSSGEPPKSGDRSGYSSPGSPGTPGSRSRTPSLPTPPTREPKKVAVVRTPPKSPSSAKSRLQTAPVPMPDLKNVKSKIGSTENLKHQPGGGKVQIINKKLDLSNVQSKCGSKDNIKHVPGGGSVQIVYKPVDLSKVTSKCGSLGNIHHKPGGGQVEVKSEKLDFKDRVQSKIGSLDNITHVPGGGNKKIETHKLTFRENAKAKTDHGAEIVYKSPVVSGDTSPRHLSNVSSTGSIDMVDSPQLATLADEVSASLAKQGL
Protocol: All compounds were assessed for their ability to bind to synthetic recombinant tau fibrils using a fluorescence quenching assay[20] […] Binding affinities for some compounds (141, 164, 166, 169, 171, and 207) could not be assessed with this assay because of negligible changes in fluorescence intensity. […] This compound was then selected for further characterization and development.
All reagents and solvents were used as supplied or purified using standard procedures as necessary. Analytical separation was conducted on an Ultimate 3000 HPLC system (Thermo Scientific). [^11C]CO2 was produced via the ^14N(p,α) nuclear reaction using GE PETtrace cyclotron applying 16.5 MeV protons onto 0.5% oxygen in nitrogen gas. [^11C]Methyl iodide was synthesized on a GE Medical Systems MeI MicroLab. A F-4500 FL spectrophotometer (Chemical Engineering department, University of Cambridge) was used to do fluorescence scan of all of the compounds mixed with tau fibrils. Excitation wavelength was 365 nm, and emission was scanned from 400 to 600 nm. With parameters, setting excitation slit was 5.0 nm, emission slit was 20.0 nm, PMT voltage was 950 V, and response was 0.5 s.
Monomeric tau (tau-441 human) lyophilized powder was obtained from Eurogentec. Tau monomers (100 μM) were prepared in 20 mM BES buffer (pH 7.4 with 25 mM NaCl and 2 mM dithiothreitol and incubated at 56 °C for 10 min. After being cooled to room temperature in a water bath, heparin (25 μM) and a protease inhibitor mix were added and incubated at 37 °C for 10 days. […]
Binding affinity of all compounds with tau fibrils […]
All other compounds binding affinit ies towards tau fibrils
were then tested by fluorescent binding assay. […]

[7] = target: T4, tau aggregates in brain of P301S tau mice (Homo sapiens, UniProt P10636, P618S); test: Ex vivo mouse study: i.v. injection, brain sections imaged after 1 h; assay type: in vivo; details: i.v. injection 1 h prior, colocalization with AT8
T4 construct: from tissue; host or cells: brain of transgenic P301S tau mice (C57Bl/6 background)
T4 sequence (P10636 1-383 isoform P10636-6 P243S): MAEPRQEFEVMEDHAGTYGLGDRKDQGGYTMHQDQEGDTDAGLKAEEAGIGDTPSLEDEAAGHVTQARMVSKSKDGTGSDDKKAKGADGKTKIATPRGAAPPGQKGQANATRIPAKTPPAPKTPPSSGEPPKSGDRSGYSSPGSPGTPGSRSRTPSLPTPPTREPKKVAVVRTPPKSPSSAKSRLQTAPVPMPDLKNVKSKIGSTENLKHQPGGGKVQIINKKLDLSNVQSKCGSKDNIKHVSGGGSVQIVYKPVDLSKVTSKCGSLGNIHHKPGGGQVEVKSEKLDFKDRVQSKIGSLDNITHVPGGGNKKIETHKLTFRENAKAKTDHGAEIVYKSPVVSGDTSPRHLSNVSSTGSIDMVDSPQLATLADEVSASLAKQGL
Protocol: We next looked at the ability of LM229 to cross the blood–brain barrier (BBB), a key property of any viable neuro-radiotracer. LM229 was injected intravenously (i.v.) (1 mg/kg weight), and after 1 h, WT and P301S tau mice were perfused-fixed and brain sections were imaged under a fluorescence microscope. […] However, we await a comparison of PBB3 and LM229 by PET imaging to determine their relativity properties as in vivo imaging probes.
Mice were injected intravenously (i.v.) with 50 μM LM229 or PBB3 (DMSO) diluted in 50:50 ethanol/PBS. Animals were then perfused (4% PFA) 1 h post-i.v.

[8] = In vivo PET studies in wild-type and P301S tau mice; parameters: species or system mouse; details: for Maximum brain uptake (%ID/g max): whole brain
From the text: We then performed preliminary in vivo PET studies with [^11C]L229 in both WT and transgenic P310S tau mice. […] Further PET studies are required to fully characterize the in vivo pharmacokinetics of the radiotracer in both mice and rats.
These studies were regulated under the Animals (Scientific Procedures) Act 1986 Amendment Regulations 2012 following ethical review by the University of Cambridge Animal Welfare and Ethical Review Body (AWERB). The mice were anesthetized with 5% isoflurane, and general anesthesia was maintained using 1.5% isoflurane. The anesthetized mice were placed prone on the bed of a microPET Focus-220 scanner (Concorde Microsystems, Knoxville, TN). Body temperature was maintained at 37 °C using a heating blanket connected to a rectal thermistor probe. Blood oxygen saturation as well as heart rate and breathing rate were monitored and maintained within normal limits using a noninvasive mouseOX pulse-oximeter sensor (Starr Life Science Corp., Oakmont, PA) attached to the thigh. Before the injection of a tracer, a transmission scan was performed with a 68Ge point source for attenuation and scatter correction of 511 keV photons. [^11C]LM229 was injected via the tail vein over 30 s, followed by a 15 s heparin–saline flush. Dynamic data were acquired in list mode for 90 min. Data were subsequently Fourier rebinned in following time frames: 12 × 5 s, 6 × 10 s, 3 × 20 s, 4 × 30 s, 5 × 60 s, 10 × 120 s, 12 × 5 min. Corrections were applied for randoms, dead time, normalization, attenuation, and decay. Fourier rebinning was used to compress the 4D sinograms to 3D before reconstruction with a 2D-filtered back projection with a Hann window cutoff at the Nyquist frequency. The image voxel size was 0.95 × 0.95 × 0.80 mm, with an array size of 128 × 128 × 95.
Three-dimensional volumes of interest (VOIs) for mice brain MRI template available on PMOD software (version 3.8; PMOD technologies, Zurich, Switzerland) were modified to obtain a whole brain VOI. […] The results were expressed as % injected dose per gram, assuming a specific gravity of 1 g·mL^–1 for brain tissue.

[9] = system: tau pathology in PS19 tau transgenic mice; parameters: method as in PMID 24050400; details: cited from earlier work
[10] = system: brainstem of P301S tau mice; parameters: method as in PMID 29930508; details: P301S tau mice vs WT; cited from earlier work
[11] = system: tau tangles in transgenic mice expressing mutant human P301L tau; parameters: method as in PMID 27030397, PMID 23411393; details: in vitro and microPET in vivo imaging; cited from earlier work
[12] = target: T5, tau fibrils (Homo sapiens, UniProt P10636); test: Microscale thermophoresis screen for interaction with tau fibrils; assay type: binding; details: 1 µM and 1 nM compound mixed with 100 nM tau fibrils
T5 construct: purchased Eurogentec
T5 sequence (P10636 1-441 isoform P10636-8): as the sequence (P10636 1-441 isoform P10636-8) above
Protocol: buffer) for 1 h at room temperature. Following 3 washes in PBS/0.1% Triton X-100, 50 µM LM229 (diluted in 1:1 blocking buffer/ethanol) was then added for 1 h at room temperature. Nuclei were stained with DAPI (0.1mg/ml for 10 min), washed and tissues mounted in FluorSaveTM prior to analysis using fluorescence […]
Binding affinity of all compounds with tau fibrils
Microscale Thermophoresis was first used to screen whether there were interaction between the compounds and tau fibrils. For this procedure 200 µL, 5 µM tau fibrils were mixed with 200 µL, 10 µM NT647-NHS dye and then incubated in dark for 30 minutes. Further dialysis (18 hours, changing the buffer after the first 4 hours) was used to remove the free dye giving a 2.5 µM solution of label led protein. The label ling ratio of dye unit per tau monomer was then tested by a method recommended by the instrument manufacturer, NanoTemper Technologies, which is based on a cal ibration curve. The 2.5 µM tau fibril solution was then aliquoted prior to use. The unused samples were frozen at -20 °C. MST measurements were conducted using Monolith NT.115 instrument (NanoTemper Technologies, Germany) at 25 °C. Assays were conducted at 40 % MST Power and 90 % IR-laser power. With each compound, two concentrations (1µM and 1nM) were used to mix with 100nM tau fibrils and then loaded to the MST instrument to read out the MST data curve. Only three compounds 166, 164 […]
All other compounds binding affinit ies towards tau fibrils were then tested by fluorescent binding assay.
as §3
as §4, with “http://faculty.gvsu.edu/carlsont/232lab/nonlin2.html.” for “http://faculty.gvsu.edu/carlsont/232lab/nonlin2.html. No Km value was”

Kd [6]: 1.4 nM | Ex vivo binding in P301S tau brain tissue [7]: significant nonspecific binding
SMILES: CNc1ccc(/C=C/C=C/c2nc3ccc(O)cc3s2)cn1 [PBB3, reference compound]
Kd [1]: 1.3 nM | Binding to pathological aggregated tau in SHR24 rat brain sections [2]: bound with similar properties to pathological aggregated tau | Preference between 3R and 4R tau inclusions in rat models [3]: preferential binding toward the 3R tau inclusions | Concentration at which binding to DRG neurons with tau aggregates was seen [4]: 30 to 100 µM | Binding to tau in SHR72 rat brain sections [5]: bound to tau in brain sections from SHR72 rats

SMILES: [11CH3]Nc1ccc(/C=C/C=C/c2nc3cc(F)c(O)cc3s2)cn1 [[^11C]LM229]
Maximum brain uptake (%ID/g max) ([8]; P301S mouse): 2.38 %ID/g | Time of maximum brain uptake ([8]; WT and P301S mice): within the first minute | Maximum brain uptake (%ID/g max) ([8]; WT mouse): 1.56 %ID/g

SMILES: [11CH3]Nc1ccc(/C=C/C=C/c2nc3ccc(O)cc3s2)cn1 [[^11C]PBB3]
Binding to tau pathology in PS19 tau transgenic mice [9]: bind to tau pathology

SMILES: [18F]c1ccc(-c2ccc3c(c2)[nH]c2ccncc23)cn1 [[^18F]T807]
Difference in retention in brainstem compared to control WT mice [10]: no more than 23% | Specific binding to tau tangles in P301L tau mice [11]: no specific binding

Kd [6]: 56 nM
SMILES: Oc1ccc2nc(/C=C/C=C/c3ccc(F)nc3)sc2c1 [compound 148]

Kd [6]: 353 nM
SMILES: Oc1ccc2nc(/C=C/C=C/c3ccc(F)cn3)sc2c1 [compound 152]

Change of the MST data curve [12]: no changes
SMILES: Fc1ccc(/C=C/C=C/c2nc3ccccc3s2)nc1 [compound 164]

Change of the MST data curve [12]: no changes
SMILES: Oc1ccc2sc(/C=C/C=C/c3ccc(F)cn3)nc2c1 [compound 166]

Change of the MST data curve [12]: no changes
SMILES: Fc1ccc(/C=C/C=C/c2nc3ccccc3s2)cn1 [compound 169]

Kd [6]: 1.1 nM
SMILES: CNc1ccc(/C=C/C=C/c2nc3cc(F)c(OC)cc3s2)cn1 [compound 225]

Kd [6]: 454 nM
SMILES: CNc1ccc(/C=C/C=C/c2nc3cc(OCCF)ccc3s2)cn1 [compound 236]
